Measurements published in patent US20070049564A1 (Wyeth, priority 2005, published 2007).
Values after ≈ are worked out from the molar mass of the structure shown. Read-outs that look alike come from different tables or passages of the source.

Legend:
Assay in all cases: MIC, broth microdilution
[1] = tested on: E. coli GC 2270; details: Escherichia coli
[2] = tested on: E. coli GC 2233; details: Escherichia coli
[3] = tested on: S. aureus GC 1131; details: Staphylococcus aureus
[4] = tested on: S. aureus GC 1079; details: Staphylococcus aureus
[5] = tested on: S. aureus GC 6469; details: Staphylococcus aureus
[6] = tested on: P. aeruginosa GC 2214; details: Pseudomonas aeruginosa
[7] = tested on: S. aureus GC 6335; details: Staphylococcus aureus
[8] = tested on: E. coli GC 4560; details: Escherichia coli
[9] = tested on: E. coli GC 2271; details: Escherichia coli
[10] = tested on: E. coli GC 1073; details: Escherichia coli
[11] = tested on: E. faecium GC 2243; details: Enterococcus faecium
[12] = tested on: E. coli GC 6465; details: Escherichia coli
[13] = tested on: E. coli GC 3226; details: Escherichia coli
[14] = tested on: c. albicans GC 3066
[15] = tested on: E. coli GC 2203; details: Escherichia coli
[16] = tested on: E. coli GC 2272; details: Escherichia coli
[17] = tested on: E. faecalis GC 2267; details: Enterococcus faecalis
[18] = tested on: S. aureus GC 6467; details: Staphylococcus aureus
[19] = tested on: S. epidermidis GC 4935; details: Staphylococcus epidermidis
[20] = tested on: E. faecalis GC 2265; details: Enterococcus faecalis

MIC ([1]; GC2270, read-out: MINIMAL INHIBITORY CONCENTRATION MIC, Human Serum): 4 µg/mL (≈ 5.59 µM)
MIC ([1]; GC2270, read-out: MINIMAL INHIBITORY CONCENTRATION MIC, Mouse Serum): 0.5 µg/mL (≈ 0.699 µM)
MIC ([1]; GC2270, read-out: MINIMAL INHIBITORY CONCENTRATION MIC, Water): 16 µg/mL (≈ 22.4 µM)
MIC ([2]; GC2233, read-out: MINIMAL INHIBITORY CONCENTRATION MIC, Human Serum): 4 µg/mL (≈ 5.59 µM)
MIC ([2]; GC2233, read-out: MINIMAL INHIBITORY CONCENTRATION MIC, Mouse Serum): 0.25 µg/mL (≈ 0.349 µM)
MIC ([2]; GC2233, read-out: MINIMAL INHIBITORY CONCENTRATION MIC, Water): 8 µg/mL (≈ 11.2 µM)
MIC ([3]; GC1131, read-out: MINIMAL INHIBITORY CONCENTRATION MIC, Human Serum): 0.5 µg/mL (≈ 0.699 µM)
MIC ([3]; GC1131, read-out: MINIMAL INHIBITORY CONCENTRATION MIC, Mouse Serum): 0.5 µg/mL (≈ 0.699 µM)
MIC ([3]; GC1131, read-out: MINIMAL INHIBITORY CONCENTRATION MIC, Water): 0.5 µg/mL (≈ 0.699 µM)
MIC ([4]; GC1079, read-out: MINIMAL INHIBITORY CONCENTRATION MIC, Human Serum): 0.5 µg/mL (≈ 0.699 µM)
MIC ([4]; GC1079, read-out: MINIMAL INHIBITORY CONCENTRATION MIC, Mouse Serum): 0.5 µg/mL (≈ 0.699 µM)
MIC ([4]; GC1079, read-out: MINIMAL INHIBITORY CONCENTRATION MIC, Water): 0.5 µg/mL (≈ 0.699 µM)
MIC ([5]; GC6469, read-out: MINIMAL INHIBITORY CONCENTRATION MIC, Human Serum): 1 µg/mL (≈ 1.4 µM)
MIC ([5]; GC6469, read-out: MINIMAL INHIBITORY CONCENTRATION MIC, Mouse Serum): 1 µg/mL (≈ 1.4 µM)
MIC ([5]; GC6469, read-out: MINIMAL INHIBITORY CONCENTRATION MIC, Water): 1 µg/mL (≈ 1.4 µM)
MIC ([6]; GC2214, read-out: MINIMAL INHIBITORY CONCENTRATION MIC, Human Serum): > 64 µg/mL
MIC ([6]; GC2214, read-out: MINIMAL INHIBITORY CONCENTRATION MIC, Mouse Serum): 32 µg/mL (≈ 44.7 µM)
MIC ([6]; GC2214, read-out: MINIMAL INHIBITORY CONCENTRATION MIC, Water): > 64 µg/mL
MIC ([7]; GC6335, read-out: MINIMAL INHIBITORY CONCENTRATION MIC, Human Serum): 1 µg/mL (≈ 1.4 µM)
MIC ([7]; GC6335, read-out: MINIMAL INHIBITORY CONCENTRATION MIC, Mouse Serum): 1 µg/mL (≈ 1.4 µM)
MIC ([7]; GC6335, read-out: MINIMAL INHIBITORY CONCENTRATION MIC, Water): 2 µg/mL (≈ 2.79 µM)
MIC ([8]; GC4560, read-out: MINIMAL INHIBITORY CONCENTRATION MIC, Human Serum): 0.5 µg/mL (≈ 0.699 µM)
MIC ([8]; GC4560, read-out: MINIMAL INHIBITORY CONCENTRATION MIC, Mouse Serum): 0.12 µg/mL (≈ 0.168 µM)
MIC ([8]; GC4560, read-out: MINIMAL INHIBITORY CONCENTRATION MIC, Water): 1 µg/mL (≈ 1.4 µM)
MIC ([9]; GC2271, read-out: MINIMAL INHIBITORY CONCENTRATION MIC, Human Serum): 4 µg/mL (≈ 5.59 µM)
MIC ([9]; GC2271, read-out: MINIMAL INHIBITORY CONCENTRATION MIC, Mouse Serum): 0.25 µg/mL (≈ 0.349 µM)
MIC ([9]; GC2271, read-out: MINIMAL INHIBITORY CONCENTRATION MIC, Water): 8 µg/mL (≈ 11.2 µM)
MIC ([10]; GC1073, read-out: MINIMAL INHIBITORY CONCENTRATION MIC, Human Serum): 8 µg/mL (≈ 11.2 µM)
MIC ([10]; GC1073, read-out: MINIMAL INHIBITORY CONCENTRATION MIC, Mouse Serum): 0.5 µg/mL (≈ 0.699 µM)
MIC ([10]; GC1073, read-out: MINIMAL INHIBITORY CONCENTRATION MIC, Water): 32 µg/mL (≈ 44.7 µM)
MIC ([11]; GC2243, read-out: MINIMAL INHIBITORY CONCENTRATION MIC, Human Serum): 0.25 µg/mL (≈ 0.349 µM)
MIC ([11]; GC2243, read-out: MINIMAL INHIBITORY CONCENTRATION MIC, Mouse Serum): 0.25 µg/mL (≈ 0.349 µM)
MIC ([11]; GC2243, read-out: MINIMAL INHIBITORY CONCENTRATION MIC, Water): 0.5 µg/mL (≈ 0.699 µM)
MIC ([12]; GC6465, read-out: MINIMAL INHIBITORY CONCENTRATION MIC, Human Serum): 32 µg/mL (≈ 44.7 µM)
MIC ([12]; GC6465, read-out: MINIMAL INHIBITORY CONCENTRATION MIC, Mouse Serum): 2 µg/mL (≈ 2.79 µM)
MIC ([12]; GC6465, read-out: MINIMAL INHIBITORY CONCENTRATION MIC, Water): > 64 µg/mL
MIC ([13]; GC3226, read-out: MINIMAL INHIBITORY CONCENTRATION MIC, Human Serum): 8 µg/mL (≈ 11.2 µM)
MIC ([13]; GC3226, read-out: MINIMAL INHIBITORY CONCENTRATION MIC, Mouse Serum): 0.5 µg/mL (≈ 0.699 µM)
MIC ([13]; GC3226, read-out: MINIMAL INHIBITORY CONCENTRATION MIC, Water): 16 µg/mL (≈ 22.4 µM)
MIC ([14]; Candida albicans, GC3066, read-out: MINIMAL INHIBITORY CONCENTRATION MIC): > 64 µg/mL
MINIMAL INHIBITORY CONCENTRATION MIC ([14]; Human Serum): >64 UG/ML
MINIMAL INHIBITORY CONCENTRATION MIC ([14]; Mouse Serum): >64 UG/ML
MIC ([15]; GC2203, read-out: MINIMAL INHIBITORY CONCENTRATION MIC, Human Serum): 4 µg/mL (≈ 5.59 µM)
MIC ([15]; GC2203, read-out: MINIMAL INHIBITORY CONCENTRATION MIC, Mouse Serum): 0.25 µg/mL (≈ 0.349 µM)
MIC ([15]; GC2203, read-out: MINIMAL INHIBITORY CONCENTRATION MIC, Water): 8 µg/mL (≈ 11.2 µM)
MIC ([16]; GC2272, read-out: MINIMAL INHIBITORY CONCENTRATION MIC, Human Serum): 2 µg/mL (≈ 2.79 µM)
MIC ([16]; GC2272, read-out: MINIMAL INHIBITORY CONCENTRATION MIC, Mouse Serum): 0.5 µg/mL (≈ 0.699 µM)
MIC ([16]; GC2272, read-out: MINIMAL INHIBITORY CONCENTRATION MIC, Water): 8 µg/mL (≈ 11.2 µM)
MIC ([17]; GC2267, read-out: MINIMAL INHIBITORY CONCENTRATION MIC, Human Serum): 1 µg/mL (≈ 1.4 µM)
MIC ([17]; GC2267, read-out: MINIMAL INHIBITORY CONCENTRATION MIC, Mouse Serum): 0.5 µg/mL (≈ 0.699 µM)
MIC ([17]; GC2267, read-out: MINIMAL INHIBITORY CONCENTRATION MIC, Water): 4 µg/mL (≈ 5.59 µM)
MIC ([18]; GC6467, read-out: MINIMAL INHIBITORY CONCENTRATION MIC, Human Serum): 1 µg/mL (≈ 1.4 µM)
MIC ([18]; GC6467, read-out: MINIMAL INHIBITORY CONCENTRATION MIC, Mouse Serum): 1 µg/mL (≈ 1.4 µM)
MIC ([18]; GC6467, read-out: MINIMAL INHIBITORY CONCENTRATION MIC, Water): 2 µg/mL (≈ 2.79 µM)
MIC ([19]; GC4935, read-out: MINIMAL INHIBITORY CONCENTRATION MIC, Human Serum): 1 µg/mL (≈ 1.4 µM)
MIC ([19]; GC4935, read-out: MINIMAL INHIBITORY CONCENTRATION MIC, Mouse Serum): 1 µg/mL (≈ 1.4 µM)
MIC ([19]; GC4935, read-out: MINIMAL INHIBITORY CONCENTRATION MIC, Water): 2 µg/mL (≈ 2.79 µM)
MIC ([20]; GC2265, read-out: MINIMAL INHIBITORY CONCENTRATION MIC, Human Serum): 1 µg/mL (≈ 1.4 µM)
MIC ([20]; GC2265, read-out: MINIMAL INHIBITORY CONCENTRATION MIC, Mouse Serum): 0.5 µg/mL (≈ 0.699 µM)
MIC ([20]; GC2265, read-out: MINIMAL INHIBITORY CONCENTRATION MIC, Water): 2 µg/mL (≈ 2.79 µM)
SMILES: CCC(=O)OCOC(=O)N(CC(=O)Nc1cc(N(C)C)c2c(c1O)C(=O)C1=C(O)[C@]3(O)C(=O)C(C(N)=O)=C(O)[C@@H](N(C)C)[C@@H]3C[C@@H]1C2)C(C)(C)C [Example 49, ({[(2-{[(5aR,6aS,7S,10aS)-9-(aminocarbonyl)-4,7-bis(dimethylamino)-1,8,10a,11-tetrahydroxy-10,12-dioxo-5,5a,6,6a,7,10,10a,12-octahydrotetracen-2-yl]amino}-2-oxoethyl)(tert-butyl)amino]carbonyl}oxy)methyl propionate]
